Test results: patent US7902156B2 (Angiochem Inc., priority 2005, dated 2011)
Residues, ends and D or L forms follow the SMILES beside them. No end group written: not given here.

Experiments:
[1] = test system: in vitro model of the BBB (co-culture of bovine brain capillary endothelial cells and rat glial cells); assay: First level screening: peptide passage in the in vitro BBB model, Coomassie blue detection; conditions: 90 minutes at 37° C.
Source text: An in vitro model was used for screening assay and for mechanistic studies of drug transport to the brain. […] The model consists of a co-culture of bovine brain capillary endothelial cells and rat glial cells. It presents ultrastructural features characteristic of brain endothelium including tight junctions, lack of fenestration, lack of transendothelial channels, low permeability for hydrophilic molecules and a high electrical resistance.
The in vitro model of BBB was established by using a co-culture of BBCECs and astrocytes. Prior to cell culture, plate inserts (Millicell-PC 3.0 μM; 30-mm diameter) were coated on the upper side with rat tail collagen. They were then set in six-well microplates containing the astrocytes and BBCECs were plated on the upper side of the filters in 2 mL of co-culture medium. This BBCEC medium was changed three times a week. Under these conditions, differentiated BBCECs formed a confluent monolayer 7 days later. Experiments were performed between 5 and 7 days after confluence was reached. The permeability coefficient for sucrose was measured to verify the endothelial permeability.
Briefly, after removing the meninges, the brain tissue was forced gently through an 82 μm nylon sieve. Astrocytes were plated on six-well microplates at a concentration of 1.2×10^5 cells/mL in 2 mL of optimal culture medium (DMEM) supplemented with 10% heat inactivated fetal bovine serum. The medium was changed twice a week.
Bovine brain capillary endothelial cells (BBCECs) were obtained from Cellial Technologies. The cells were cultured in the presence of DMEM medium supplemented with 10% (v/v) horse serum and 10% heat-inactivated calf serum, 2 mM of glutamine, 50 μg/mL of gentamycin, and 1 ng/mL of basic fibroblast growth factor, added every other day.
Each peptide was added to the upper side of the inserts covered or non-covered with endothelial cells for 90 minutes at 37° C. […] After 90 minutes of transcytosis, a volume of 50 μl from the basolateral side of the filters covered with endothelial cells (+) or non-covered (−) was also loaded on Tricine gels. To visualize the peptides gels were stained with Coomassie blue.

mouse brain = assay: In situ cerebral perfusion with post-perfusion capillary depletion; format: in vivo, mice; conditions: perfusion 5 min
Source text: The in situ cerebral perfusion (in mice) was used as the fourth level of selection to select the best peptides. This procedure also distinguishes between compounds remaining in the brain vascular compartment from those having crossed the abluminal endothelial membrane to enter the brain parenchyma. Indeed, the technique of post-perfusion capillary depletion allows to measure whether the molecule really crosses the endothelium to enter the brain parenchyma.

Molecule	Peptide detected in the lower side of the chambers by Coomassie blue staining [1]	other results
C[C@@H](O)[C@H](N)C(=O)N[C@@H](Cc1ccccc1)C(=O)N[C@@H](Cc1ccccc1)C(=O)N[C@@H](Cc1ccc(O)cc1)C(=O)NCC(=O)NCC(=O)N[C@@H](CO)C(=O)N[C@@H](CCCNC(=N)N)C(=O)NCC(=O)N[C@@H](CCCCN)C(=O)N[C@@H](CCCNC(=N)N)C(=O)N[C@@H](CC(N)=O)C(=O)N[C@@H](CC(N)=O)C(=O)N[C@@H](Cc1ccccc1)C(=O)N[C@@H](CCCCN)C(=O)N[C@H](C(=O)N[C@@H](CCC(=O)O)C(=O)N[C@@H](CCC(=O)O)C(=O)N[C@@H](Cc1ccc(O)cc1)C(=O)O)[C@@H](C)O [Peptide 70, T F F Y G G S R G K R N N F K T E E Y]	detected in the lower side of the chambers	
C[C@@H](O)[C@H](N)C(=O)N[C@@H](Cc1ccccc1)C(=O)N[C@@H](Cc1ccccc1)C(=O)N[C@@H](Cc1ccc(O)cc1)C(=O)NCC(=O)NCC(=O)N[C@@H](CS)C(=O)N[C@@H](CCCNC(=N)N)C(=O)NCC(=O)N[C@@H](CCCCN)C(=O)N[C@@H](CCCNC(=N)N)C(=O)N[C@@H](CC(N)=O)C(=O)N[C@@H](CC(N)=O)C(=O)N[C@@H](Cc1ccccc1)C(=O)N[C@@H](CCCCN)C(=O)N[C@H](C(=O)N[C@@H](CCC(=O)O)C(=O)N[C@@H](CCC(=O)O)C(=O)N[C@@H](Cc1ccc(O)cc1)C(=O)N[C@@H](CS)C(=O)O)[C@@H](C)O [Peptide 72, TFFYGGCRGKRNNFKTEEYC] (H-TFFYGGCRGKRNNFKTEEYC-OH; N-terminus and C-terminus assumed)	detected in the lower side of the chambers	
C[C@@H](O)[C@H](NC(=O)[C@H](CCCCN)NC(=O)[C@H](Cc1ccccc1)NC(=O)[C@H](CC(N)=O)NC(=O)[C@H](CC(N)=O)NC(=O)[C@H](CCCNC(=N)N)NC(=O)[C@H](CCCCN)NC(=O)CNC(=O)[C@H](CCCNC(=N)N)NC(=O)[C@H](CS)NC(=O)[C@H](CO)NC(=O)CNC(=O)[C@H](Cc1ccc(O)cc1)NC(=O)[C@H](Cc1ccccc1)NC(=O)[C@H](Cc1ccccc1)NC(=O)[C@@H](NC(=O)[C@@H](N)CS)[C@@H](C)O)C(=O)N[C@@H](CCC(=O)O)C(=O)N[C@@H](CCC(=O)O)C(=O)N[C@@H](Cc1ccc(O)cc1)C(=O)O [Peptide 73, CTFFYGSCRGKRNNFKTEEY] (H-CTFFYGSCRGKRNNFKTEEY-OH; N-terminus and C-terminus assumed)	detected in the lower side of the chambers	
PFFYGGCRGKRNNFKTEEY [Peptide 75, P F F Y G G C R G K R N N F K T E E Y]	detected in the lower side of the chambers	
TFFYGGCRGNRNNFLTAEY [Peptide 45, T F F Y G G C R G N R N N F L T A E Y]	detected in the lower side of the chambers	
TFFYGGKRGKRNNFKRAKY [Peptide 82, T F F Y G G K R G K R N N F K R A K Y]	detected in the lower side of the chambers	
TFFYGGKRGKRNNFKREKY [Peptide 81, T F F Y G G K R G K R N N F K R E K Y]	detected in the lower side of the chambers	
TFFYGGKRGKRNNFKTEEY [Peptide 77, T F F Y G G K R G K R N N F K T E E Y]	detected in the lower side of the chambers	
TFFYGGSRGNRNNFKTAKY [Peptide 25, T F F Y G G S R G N R N N F K T A K Y]		Volume of distribution, Capillaries (mouse brain): 1082 ml/100 g; Volume of distribution, Parenchyma (mouse brain): 60 ml/100 g; Volume of distribution, Capillaries % (mouse brain; share of homogenate): 95%; Volume of distribution, Parenchyma % (mouse brain; share of homogenate): 5%; Volume of distribution, Homogenate (mouse brain; total brain): 1141 ml/100 g
